Laboratory results from patent publication US6894021B2, “Method for identifying and using A2B adenosine receptor antagonists to mediate mammalian cell proliferation” (CV Therapeutics, Inc., priority 2000, dated 2005).
“Also recorded” adds a separate entry of the source.

Legend:
Assay type in all cases: cell-based
[1] = tested on: human retinal endothelial cells (HREC); assay: Endothelial cell chemotaxis / chemokinesis in blind-well (Boyden) chambers; settings: for Effect on NECA-stimulated HREC migration (chemotaxis): antagonist 10 μmol/L co-added with NECA 10 μmol/L
Protocol: (§1) Primary cultures of HREC were prepared and maintained as previously described and cells in passage 3-6 were used for these studies. […] To maintain purity of HREC, several precautionary steps were taken. […] In addition, cultures of HREC were exposed to trypsin for only 45 sec prior to passage. Endothelial cells float off during this short trypsin treatment while pericytes remain attached to the substrate.
Endothelial cell chemotaxis was measured in blind-well chemotaxis chambers (Neuroprobe, Inc, Bethesda, Md.) as previously described. Briefly a single cell suspension of endothelial cells ([…] cells/well) was prepared and treated with ADA (1 U/mL). Thirty microliters of this suspension was placed in each of 48 lower wells of the blind-well apparatus. The wells were overlaid with a porous (5 μm diameter pore) polyvinyl—and pyrrolidone-free polycarbonate membrane (Nucleopore, Pleasanton, Calif.), coated with 0.1% dermal collagen. The cells were allowed to attach to the membrane by inverting the chamber of 2 h. The chambers were then placed upright and exposed to NECA alone (10 μmol/L), NECA combined with 3-N-propylxanthine (10 μmol/L), JW-V1-08 (10 μmol/L) or the non-selective AdoR antagonist xanthine amine congener (XAC, 10 μmol/L) in a 50 μL volume. After incubation for 12 h, the membrane was recovered and scraped free of cells on the attachment side. The remaining cells, those that had migrated through the pores, were fixed in methanol, is stained with modified Wright's stain and then counter-stained with haematoxylin and eosin. The positive control was 10% fetal bovine serum and the negative control was 1% ablumin. Chemokinesis, the non-oriented increase in cell migration in response to a stimulus, was measured by adding equal concentration of NECA or NECA plus one of the antagonists to both lower and upper chambers. Treatment conditions were examined in triplicate in three separate experiments.

[2] = tested on: human retinal endothelial cells (HREC); assay: HREC proliferation assay (cell counting, Coulter Counter); settings: for Effect on NECA-induced HREC proliferation: antagonist 10 μmol/L with NECA 10 μmol/L, FIG. 1A
Protocol: as §1
HREC were seeded at 10 cells/cm in 24 well plates and allowed to adhere overnight. Cells were washed in Hank's balanced salt solution and the medium was replaced with serum—and growth supplement-free medium (SFM) for 24 hr to induce cell-cycle arrest. Cells were washed again and pre-treated with 1 U/mL adenosine deaminase (ADA) for 30 min. […] Controls were HREC exposed to SFM or normal growth medium. For the next three days at 24-hour intervals replicate wells were treated with trypsin and the cells were collected and counted using a Coulter Counter. Each condition was examined in triplicate in three separate experiments using cells from different donors for each experiment.

[3] = tested on: human retinal endothelial cells (HREC); assay: Matrigel assay of endothelial tube formation; settings: 48 h; for Effect on NECA-induced tube formation on Matrigel (photomicrographs): antagonist 10 μmol/L with NECA 10 μmol/L, FIG. 2C, 2D; for Total tube length in the presence of NECA: antagonist added to NECA, NECA alone 74.2±2.4
Protocol: as §1
Endothelial tube formation was assessed on Matrigel. Briefly, Matrigel was thawed and kept at 4° C. Multi-well plates and pipette tips were chilled to −20° C. and Matrigel (125 μL) was added to each well of a 48-well plate and allowed to harden for a minimum of 1 h at 37° C. HREC were dissociated enzymatically (2 min at 37° C. in 0.25% Trypsin-EDTA), centrifuged (300×g, 5 min) and re-suspended in serum-free media. Test agents (100 μL) were prepared at 2× final concentration and 100 μL were added to wells. HREC (3×10 in 100 μL per well) were then added and plates were incubated at 37° C. Wells were photographed 48 h after plating. Identical fields in each well were photographed to minimize the possible variation due to variable cell density caused by the settling of cells. […] All conditions were tested in duplicate wells in three separate experiments using cells from different donors.

| Compound | Effect on NECA-stimulated HREC migration (chemotaxis) ([1]; 12 h, FIG. 1B) | HREC proliferation by cell counts, as density relative to cells exposed to normal growth medium ([2]; NECA 10 μmol/L, 3 days, ADA-pretreated serum-starved HREC) | HREC chemotaxis / migration ([1]; NECA alone versus unstimulated cells, 12 h, FIG. 1B) | Chemokinesis (non-oriented increase in cell migration) ([1]; equal concentration in lower and upper chambers) | Endothelial cell tube formation on Matrigel (photomicrographs) ([3]; NECA 10 μmol/L alone, FIG. 2B) | Increase of tube length over untreated cells ([3]; NECA alone) | Total tube length ([3]; NECA alone, untreated cells 35.7±1.6, p<0.01) [pixel] | Effect on NECA-induced HREC proliferation [2] | Effect on NECA-induced tube formation on Matrigel (photomicrographs) [3] | Total tube length in the presence of NECA ([3]; p<0.01) [pixel] |
| --- | --- | --- | --- | --- | --- | --- | --- | --- | --- | --- |
| CCCn1c(=O)c2[nH]c(-c3ccc(OCC(=O)NCCN)cc3)nc2n(CCC)c1=O [XAC, xanthine amine congener] | abolished NECA-stimulated migration of HREC |  |  |  |  |  |  |  |  |  |
| CCNC(=O)[C@H]1O[C@@H](n2cnc3c(N)ncnc32)[C@H](O)[C@@H]1O [NECA, 5′-N-ethylcarboxamido-adenosine] |  | about 80% | concentration-dependent increase in HREC migration; also recorded: increased migration in a concentration-dependent manner | Neither NECA alone nor NECA in combination with the AdoR antagonists induced chemokinesis | supported extensive tube formation | more than 2 fold | 74.2±2.4 |  |  |  |
| CC(C)Cn1c(=O)[nH]c(=O)c2[nH]c(N3CCCC3)nc21 [JW-V1-08, 3-isobutyl-8-pyrrolidinoxanthine] | antagonized the stimulatory effect of NECA on chemotaxis |  |  |  |  |  |  | completely blocked; also recorded: completely block the proliferative effect of NECA | diminished NECA-induced tube formation; also recorded: inhibited | 66±1.2 |
| CCCn1c(=O)[nH]c(=O)c2[nH]cnc21 [3-N-propylxanthine] | antagonized the stimulatory effect of NECA on chemotaxis |  |  |  |  |  |  | completely blocked; also recorded: completely block the proliferative effect of NECA | diminished NECA-induced tube formation; also recorded: inhibited tube formation, resulting in fewer tubes of shorter length | 53.7±0.9 |
